Experimental data reported in patent publication US20250228832A1, “METHODS FOR TREATING DISORDERS AMELIORATED BY MUSCARINIC RECEPTOR ACTIVATION” (KARUNA THERAPEUTICS, INC., priority 2022, published 2025).
Like-named read-outs stand apart in the source and are kept apart here.

Columns and labels:
[1] = target: T1, human M4 receptor (Homo sapiens, UniProt P08173); assay: SPA GTP (GTPgS) binding curve shift assay, M4; format: biochemical
T1 construct: expressed in transfected cells
T1 sequence (P08173 1-479): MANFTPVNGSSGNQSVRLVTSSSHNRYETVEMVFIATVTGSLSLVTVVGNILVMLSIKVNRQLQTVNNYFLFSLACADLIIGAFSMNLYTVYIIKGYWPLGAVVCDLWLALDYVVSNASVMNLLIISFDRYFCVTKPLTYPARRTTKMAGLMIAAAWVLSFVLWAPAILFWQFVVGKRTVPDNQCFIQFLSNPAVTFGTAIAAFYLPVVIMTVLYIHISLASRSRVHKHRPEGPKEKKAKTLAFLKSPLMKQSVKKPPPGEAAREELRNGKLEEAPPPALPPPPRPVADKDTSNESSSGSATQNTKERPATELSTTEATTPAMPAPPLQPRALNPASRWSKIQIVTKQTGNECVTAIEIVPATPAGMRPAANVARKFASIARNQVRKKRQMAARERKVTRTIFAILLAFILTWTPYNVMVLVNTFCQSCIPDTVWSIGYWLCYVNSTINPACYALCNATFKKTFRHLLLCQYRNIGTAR
Description: Membranes were prepared for GTPgS binding assays from CHO-K1 cells stably expressing human M2 or human M4 receptors. Cells were grown in 5-layer cell culture flasks. Cells were washed with 50 mL of PBS and then dissociated with 0.05% trypsin. Dissociated cells were then collected by centrifugation at 650×g for 8 min at 4° C. Pellets were rewashed in PBS by centrifugation and resuspended in 30 mL of 20 mM HEPES, 10 mM EDTA, pH 7.4. After sitting on ice for 30 min, membranes were collected by centrifugation at 50000×g for 15 min at 4° C., resuspended in 30 mL of 20 mM HEPES, 0.1 mM EDTA, pH 7.4, and collected again by centrifugation. Pellets were then washed twice by centrifugation in 30 mL of 20 mM HEPES, pH 7.4, and stored at −80° C. until the day of the assay. On the day of the assay, pellets were thawed on ice and resuspended in 1 mL of 20 mM HEPES, pH 7.4, 10 mM MgCl2, and 100 mM NaCl using Dounce homogenization.
According to Promega guidelines, membrane protein concentration was determined by BCA protein assay (Promega, Madison, WI).
On the day of the assay, serial dilutions of test PAM compounds were brought up in assay buffer (20 mM HEPES, 10 mM MgCl2; see Table 4 for NaCl concentrations) at four times the final assay concentration. […] of membrane homogenates (containing […] of membrane protein) were prepared in assay buffer supplemented with GDP at 4× final assay concentration (see Table 4 for GDP concentrations) and dispensed into 96 well polypropylene, U-bottom Greiner plates. Membrane plates were incubated for 10 min at room temperature with gentle shaking. Then, 25 μL of test compounds were added to assay plates. Plates were then incubated, with shaking, for an additional 10-15 min. Then, 25 μL of diluted agonists serially diluted in assay buffer at 4× final assay concentration was added to assay plates. Plates were then incubated, with shaking, for an additional 10-15 min. Next, […] of 0.4 nM ^35S-GTP (Perkin Elmer, Waltham, MA) in assay buffer was added to assay mixtures. The binding reaction was left on the shaker for 1 h at room temperature. Membranes in assay reactions were then transferred to GF/C filter plates (UniFilter, Perkin Elmer) and washed three times using FilterMate Harvester (Perkin Elmer) with cold assay buffer containing no GDP. Filter plates were then dried at 40° C. overnight, and […] of Beta Plate Scintillation liquid was added. Plates were top and bottom sealed before being read on the TopCount scintillation counter (Perkin Elmer, Waltham, MA).
Raw data for all assays was transmitted directly from plate readers into the Beacon database for processing. All assay plates contained positive and negative control wells for data normalization and scaling. […] All control wells contained DMSO at a final assay concentration that matched the test compound wells.
For GTPgS assays, the negative control wells were defined as 0% response. The highest response in a plate was scaled to 1, representing 100% response. Data from test compound wells was scaled to these controls and are reported as % control values. This was done to allow for subsequent GraphPad cooperativity analysis, setting the maximal response at no more than 1.

[2] = 26-week study of Alzheimer's disease; cited from earlier work
[3] = 25-75 mg TID, 75-225 mg TDD; cited from earlier work
[4] = Emraclidine concentration 41.2 nM, read-out: Emax
[5] = Emraclidine concentration 123 nM, read-out: Emax
[6] = Emraclidine concentration 370 nM
[7] = Emraclidine concentration 1110 nM, read-out: Emax
[8] = Emraclidine concentration 3330 nM, read-out: Emax
[9] = MK-4710 concentration 41.2 nM, read-out: Emax
[10] = MK-4710 concentration 123 nM, read-out: Emax
[11] = MK-4710 concentration 1110 nM, read-out: Emax
[12] = MK-4710 concentration 3330 nM, read-out: Emax

Emax ([1]; Emraclidine concentration 0 nM) [%] | Emax [1, 4] [%] | Emax [1, 5] [%] | Emax at […] [1, 6] [%] | Emax [1, 7] [%] | Emax [1, 8] [%] | Emax at […] ([1]; Emraclidine concentration […]) [%] | τ (agonist pharmacology) ([1]; M4 PAM Emraclidine) | Emax ([1]; MK-4710 concentration 0 nM) [%] | Emax [1, 9] [%] | Emax [1, 10] [%] | Emax at […] ([1]; MK-4710 concentration 370 nM) [%] | Emax [1, 11] [%] | Emax [1, 12] [%] | Emax at […] ([1]; MK-4710 concentration […]) [%] | EC50 ([1]; Emraclidine concentration 0 nM) [nM] | α (cooperativity, affinity shift) ([1]; M4 PAM Emraclidine) | β (cooperativity, efficacy shift) ([1]; M4 PAM Emraclidine) | α (cooperativity, affinity shift) ([1]; M4 PAM MK-4710) | β (cooperativity, efficacy shift) ([1]; M4 PAM MK-4710) | Structure (SMILES) | further results
2.6 | 17.8 | 29.6 | 46.5 | 62.4 | 66.8 | 10.6 | 0.6 | 12.6 | 27.3 | 34.3 | 53.4 | 75.1 | 87.1 | 20.4 | 1.6 | 3.0 | 32.3 | 1.0 | 1395.0 | CCCCCOc1nsnc1C1=CCCCN1C [KTX-517, 3-(1-methyl-1,4,5,6-tetrahydropyridin-2-yl)-4-(pentyloxy)-1,2,5-thiadiazole] | τ (agonist pharmacology) ([1]; M4 PAM MK-4710): 0.8; EC50 ([1]; MK-4710 concentration 0 nM): 548 nM; EC50 ([1]; MK-4710 concentration 41.2 nM): 2.3 nM; EC50 ([1]; MK-4710 concentration 123 nM): 1.4 nM; EC50 ([1]; MK-4710 concentration 370 nM): 2.1 nM; EC50 ([1]; MK-4710 concentration 1110 nM): 2.3 nM; EC50 ([1]; MK-4710 concentration 3330 nM): 1.5 nM; EC50 ([1]; MK-4710 concentration […]): 8.7 nM
14.3 | 24.5 | 43.9 | 60.1 | 76.8 | 84 | 24.2 | 1.5 | 14.0 | 35.9 | 41.8 | 59.7 | 80 | 88.1 | 26 | 12.7 | 2.4 | 56.3 | 1.0 | 1051018.0 | CCCCCCCOc1nsnc1C1=CCCCN1C [KTX-593, 3-(heptyloxy)-4-(1-methyl-1,4,5,6-tetrahydropyridin-2-yl)-1,2,5-thiadiazole] | τ (agonist pharmacology) ([1]; M4 PAM MK-4710): 381.2; EC50 ([1]; MK-4710 concentration 0 nM): 44.7 nM
4.0 | 13.2 | 28 | 49.2 | 73.3 | 86.3 | 10.6 | 0.4 | 6.4 | 20.2 | 26.6 | 42.1 | 68.1 | 83.6 | 14.4 | 1300 | 1.0 | 57.2 | 1.0 | 136.5 | CC1OC2(CS1)CN1CCC2CC1 (centres unmarked) [cevimeline, Cevimeline, reference compound] | τ (agonist pharmacology) ([1]; M4 PAM MK-4710): 0.1; EC50 ([1]; MK-4710 concentration 0 nM): 3010 nM

Structure (SMILES) | Emax ([1]; Emraclidine concentration 0 nM) [%] | Emax [1, 4] [%] | Emax [1, 5] [%] | Emax at […] [1, 6] [%] | Emax [1, 7] [%] | Emax [1, 8] [%] | Emax at […] ([1]; Emraclidine concentration […]) [%] | τ (agonist pharmacology) ([1]; M4 PAM Emraclidine) | Emax ([1]; MK-4710 concentration 0 nM) [%] | Emax [1, 9] [%] | Emax [1, 10] [%] | Emax at […] ([1]; MK-4710 concentration 370 nM) [%] | Emax [1, 11] [%] | Emax [1, 12] [%] | Emax at […] ([1]; MK-4710 concentration […]) [%] | EC50 ([1]; Emraclidine concentration 0 nM) [nM] | α (cooperativity, affinity shift) ([1]; M4 PAM Emraclidine) | β (cooperativity, efficacy shift) ([1]; M4 PAM Emraclidine) | α (cooperativity, affinity shift) ([1]; M4 PAM MK-4710) | β (cooperativity, efficacy shift) ([1]; M4 PAM MK-4710) | further results
CCCCCCOc1nsnc1C1=CCCN(C)C1 [xanomeline, reference compound] | 27.2 | 31.9 | 38.1 | 60 | 78.7 | 89.4 | 28.7 | 1.4 | 19.7 | 29.7 | 38.5 | 55 | 70.6 | 80.5 | 25.1 | – | – | – | – | – | dropout rate [2]: 56%; positive (psychosis), negative, and cognitive symptoms of schizophrenia [3]: improved
